# Data from patent US20260125375A1 (Pfizer Inc., priority 2022, published 2026).
# Like-named read-outs stand apart in the source and are kept apart here.
# Experiments:
# C-CBL (residues 46-435) = target: T1, C-CBL (residues 46-435) (Homo sapiens, UniProt P22681); assay: Ligand Displacement Assay (LDA), HTRF competitive binding against BODIPY-labeled fluorescent tracer, C-CBL; conditions: geometric mean of the number of tests, read-out: C-CBL Ki (nM) GMean
# T1 construct: Purified CBL-B (residues 36-427) and C-CBL (residues 46-435) proteins from baculovirus-infected insect cells; made in house; host or cells: baculovirus-infected insect cells
# T1 sequence (P22681 46-435): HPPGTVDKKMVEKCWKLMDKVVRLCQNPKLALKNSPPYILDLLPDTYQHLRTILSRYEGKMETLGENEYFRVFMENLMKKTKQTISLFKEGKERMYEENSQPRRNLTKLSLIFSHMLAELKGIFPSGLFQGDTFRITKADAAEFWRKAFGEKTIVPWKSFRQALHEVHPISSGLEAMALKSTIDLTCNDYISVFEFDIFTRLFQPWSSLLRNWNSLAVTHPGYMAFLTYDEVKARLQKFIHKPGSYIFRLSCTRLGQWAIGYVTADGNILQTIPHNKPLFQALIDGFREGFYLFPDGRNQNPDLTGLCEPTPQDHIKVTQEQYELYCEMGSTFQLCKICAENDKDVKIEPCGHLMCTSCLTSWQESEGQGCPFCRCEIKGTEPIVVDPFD
# Summary of the method: (§1)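 Terbium-streptavidin donor on BirA-biotinylated, AviTagged protein from baculovirus-infected insect cells; BODIPY tracer as acceptor. Compound titrations were three-fold and duplicated, […] with 2% DMSO final.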
# CBL-B (residues 36-427) = target: T2, CBL-B (residues 36-427) (Homo sapiens, UniProt Q13191); assay: Ligand Displacement Assay (LDA), HTRF competitive binding against BODIPY-labeled fluorescent tracer, CBL-B; conditions: geometric mean of the number of tests, read-out: CBL-B Ki (nM) GMean
# T2 construct: Purified CBL-B (residues 36-427) and C-CBL (residues 46-435) proteins from baculovirus-infected insect cells; made in house; host or cells: baculovirus-infected insect cells
# Summary of the method: as §1
# C-CBL = target: T3, C-CBL (Homo sapiens, UniProt P22681); assay: Jurkat HiBit-IL2 assay (CBL-B KO), reporter cell line expressing C-CBL only; type: cell-based; conditions: geometric mean, read-out: CBL-B KO EC50 (nM) GMean
# T3 construct: endogenous in cells; host or cells: Jurkat HiBit-IL2 reporter cells, CBL-B knocked out by CRISPR
# Summary of the method: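 CRISPR knockout Jurkat HiBit-IL2 reporter cells (20,000/well) were preincubated 1 h with compounds (0.1% DMSO), then stimulated 4 h at 37 °C with anti-CD3 (1 μg/ml) and anti-CD28 (2 μg/ml) final. IL-2 was read by HiBiT lytic luminescence, normalized as fold over antibody-only baseline; EC50 reported as geometric mean.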
# [1] = CBL-B KO (C-CBL only), anti-CD3/anti-CD28 stimulation 4 hours, Table 16a
# [2] = CBL-B KO (expressing C-CBL only), Table 16b (further repetition)
SMILES,Ki (C-CBL (residues 46-435)) [nM],Ki (CBL-B (residues 36-427)) [nM],EC50 (C-CBL; [1]) [nM],EC50 (C-CBL; [2]) [nM]
"CC(NC1CCCC1)c1nc(C(F)(F)F)cc2c(-c3cccc([C@H](c4nncn4C)C4CCC4)c3)n[nH]c12 (stereo partly drawn) [Example C14, N-{(1ξ)-1-[3-{3-[(R)-cyclobutyl(4-methyl-4H-1,2,4-triazol-3-yl)methyl]phenyl}-5-(trifluoromethyl)-1H-pyrazolo[3,4-c]cyclopen-7-yl]ethyl}cyclopentanamine]",2.3,0.4,26,17
"C[C@H](N[C@@H]1CCC(F)(F)C1)c1nc(C(F)(F)F)cc2c(-c3cccc(C4(Cc5nncn5C)COC4)c3)n[nH]c12 (single isomer, unassigned) [Example C17]",24.8,4,196,–
"CC(C)NC(C)c1nc(C(F)(F)F)cc2c(-c3cccc([C@H](c4nncn4C)C4CCC4)c3)n[nH]c12 (single isomer, unassigned) [Example C35]",29.1,3.1,172,–
"C[C@H](N[C@H]1CCOC1)c1nc(C(F)(F)F)cc2c(-c3cccc([C@H](c4nncn4C)C4CCC4)c3)n[nH]c12 (single isomer, unassigned) [Example C2]",55.6,3.9,641,–
"C[C@H](c1nc(C(F)(F)F)cc2c(-c3cccc(C4(Cc5nncn5C)COC4)c3)n[nH]c12)N1C[C@@H](F)[C@H](F)C1 (single isomer, unassigned) [Example C26]",198,40.5,1850,–
"Cn1cnnc1[C@@H](c1cccc(-c2n[nH]c3c(CN[C@@H]4CCC[C@@H]4O)nc(C(F)(F)F)cc23)c1)C1CCC1 [Example C1, (1S,2R)-2-({[3-{3-[(R)-cyclobutyl(4-methyl-4H-1,2,4-triazol-3-yl)methyl]phenyl}-5-(trifluoromethyl)-1H-pyrazolo[3,4-c]pyridin-7-yl]methyl}amino)cyclopentan-1-ol]",7.1,0.6,275,584
C[C@H](N[C@H]1CCC(F)(F)C1)c1nc(C(F)(F)F)cc2c(-c3cccc([C@H](c4nncn4C)C4CCC4)c3)n[nH]c12 [Example C8],3,1.1,44,–
"Cn1cnnc1[C@@H](c1cccc(-c2n[nH]c3c(CN[C@H]4CCC(F)(F)C4)nc(C(F)(F)F)cc23)c1)C1CCC1 (single isomer, unassigned) [Example G1]",118,11,775,–
"C[C@H]1CCCN(Cc2nc(C(F)(F)F)cc3c(-c4cccc(C5(Cc6nncn6C)COC5)c4)n[nH]c23)C1 [Example C30, 7-{[(3S)-3-methylpiperidin-1-yl]methyl}-3-(3-{3-[(4-methyl-4H-1,2,4-triazol-3-yl)methyl]oxetan-3-yl}phenyl)-5-(trifluoromethyl)-1H-pyrazolo[3,4-c]pyridine]",23.4,3.6,232,–
"C[C@H](NC1CC(F)(F)C1)c1nc(C(F)(F)F)cc2c(-c3cccc([C@H](c4nncn4C)C4CCC4)c3)n[nH]c12 (single isomer, unassigned) [Example D90]",147,8.9,–,313
"CC(c1nc(C(F)(F)F)cc2c(-c3cccc(C4(Cc5nncn5C)COC4)c3)n[nH]c12)N1CCCCC1 (single isomer, unassigned) [Example C21, 3-(3-{3-[(4-methyl-4H-1,2,4-triazol-3-yl)methyl]oxetan-3-yl}phenyl)-7-[(1ξ)-1-(piperidin-1-yl)ethyl]-5-(trifluoromethyl)-1H-pyrazolo[3,4-c]pyridine]",93.5,21.3,851,–
C[C@@H](NC1CCC1)c1nc(C(F)(F)F)cc2c(-c3cccc(C4(Cc5nncn5C)COC4)c3)n[nH]c12 [Example C16],49.3,10,689,–
"Cn1cnnc1CC1(c2cccc(-c3n[nH]c4c(CN5CCCCC5)nc(C(F)(F)F)cc34)c2)COC1 [Example C33, 3-(3-{3-[(4-methyl-4H-1,2,4-triazol-3-yl)methyl]oxetan-3-yl}phenyl)-7-[(piperidin-1-yl)methyl]-5-(trifluoromethyl)-1H-pyrazolo[3,4-c]pyridine]",111,22.6,1840,–
"Cn1cnnc1[C@@H](c1cccc(-c2n[nH]c3c(CN[C@H]4CCOC4)nc(C(F)(F)F)cc23)c1)C1CCC1 [Example D1, (3S)—N-{[3-{3-[(R)-cyclobutyl(4-methyl-4H-1,2,4-triazol-3-yl)methyl]phenyl}-5-(trifluoromethyl)-1H-pyrazolo[3,4-c]pyridin-7-yl]methyl}oxolan-3-amine]",210,22.4,1890,–
"C[C@H](N[C@@H]1CCC[C@@H]1O)c1nc(C(F)(F)F)cc2c(-c3cccc([C@H](c4nncn4C)C4CCC4)c3)n[nH]c12 (single isomer, unassigned) [Example D15]",1,0.9,20,11
"C[C@@H]1CCCN([C@H](C)c2nc(C(F)(F)F)cc3c(-c4cccc(C5(Cc6nncn6C)COC5)c4)n[nH]c23)C1 (single isomer, unassigned) [Example D14]",183,42.9,2010,–
"C[C@@H](c1nc(C(F)(F)F)cc2c(-c3cccc(C4(Cc5nncn5C)COC4)c3)n[nH]c12)N1C[C@H](F)[C@@H](F)C1 (single isomer, unassigned) [Example D7]",28.1,7.4,380,–
"C[C@H](O)CN[C@@H](C)c1nc(C(F)(F)F)cc2c(-c3cccc([C@H](c4nncn4C)C4CCC4)c3)n[nH]c12 (single isomer, unassigned) [Example D19]",12.4,1,132,157
"CC1CN(Cc2nc(C(F)(F)F)cc3c(-c4cccc(C5(Cc6nncn6C)COC5)c4)n[nH]c23)CCC1(F)F (single isomer, unassigned) [Example C31, 7-{[(3ξ)-4,4-difluoro-3-methylpiperidin-1-yl]methyl}-3-(3-{3-[(4-methyl-4H-1,2,4-triazol-3-yl)methyl]oxetan-3-yl}phenyl)-5-(trifluoromethyl)-1H-pyrazolo[3,4-c]pyridine]",112,21.7,1370,–
"CC(C)NC(C)c1nc(C(F)(F)F)cc2c(-c3cccc([C@H](c4nncn4C)C4CCC4)c3)n[nH]c12 (single isomer, unassigned) [Example C34]",88.5,8.9,892,428
"C[C@@H](N[C@H]1CCC(F)(F)C1)c1nc(C(F)(F)F)cc2c(-c3cccc(C4(Cc5nncn5C)COC4)c3)n[nH]c12 (single isomer, unassigned) [Example C13]",8,2.3,63,–
"C[C@H](c1nc(C(F)(F)F)cc2c(-c3cccc(C4(Cc5nncn5C)COC4)c3)n[nH]c12)N1CCO[C@@H](C)C1 (single isomer, unassigned) [Example D12]",52.9,15.3,973,–
"C[C@@H](c1nc(C(F)(F)F)cc2c(-c3cccc(C4(Cc5nncn5C)COC4)c3)n[nH]c12)N1CCC(F)(F)C1 (single isomer, unassigned) [Example D5]",148,32.7,1380,–
